ChEMBL document CHEMBL1649104, “Benzofuran Derivatives as Potent, Orally Active S1P1 Receptor Agonists: A Preclinical Lead Molecule for MS” (ACS Med Chem Lett, 2011)
pEC50, pIC50: −log10 of the molar value. Each block holds one compound with its values, some of them ahead of it. Active and inactive are the calls of the source. The calls are words filed in the database; no cut-off is given here.

Key:
[1] = target: T1, Sphingosine 1-phosphate receptor 3 (Homo sapiens, UniProt Q99500); test: Displacement of [33P]S1P from human S1P3R expressed in CHO cell membranes
[2] = target: T2, Sphingosine 1-phosphate receptor 1 (Homo sapiens, UniProt P21453); test: Induction of human GFP-tagged chimeric S1P1R internalization in human U2Os cells by fluorescence microscopy; assay type: cell-based
[3] = target: T1, Sphingosine 1-phosphate receptor 3; test: Agonist activity at human S1P3R expressed in CHO cells by Ca(2+) mobilization assay; assay type: functional, cell-based
[4] = target: T2, Sphingosine 1-phosphate receptor 1; test: Agonist activity at human S1P1R expressed in CHO cells assessed as stimulation of [35S]GTPgammaS binding; assay type: functional, cell-based
[5] = target: T2, Sphingosine 1-phosphate receptor 1; test: Induction of human GFP-tagged chimeric S1P1R internalization in human U2Os cells by fluorescence microscopy relative to 1-(4-(6-benzylbenzofuran-2-yl)-3-fluorobenzyl)azetidine-3-carboxylic acid; assay type: cell-based
[6] = Inhibition of Cytochrome P450; assay type: ADME
Rattus norvegicus [7] = test: Toxicity in telemetered Sprague-Dawley rat assessed as effect on heart rate at 20 mg/kg, po; assay type: organism-based; design: dose 20 mg/kg, route oral; conditions: in vivo
Rattus norvegicus [8] = test: Lymphopenic activity in Lewis rat assessed as reduction in blood lymphocyte counts at 3 mg/kg, po measured 24 hrs post dose; assay type: functional
Rattus norvegicus [9] = test: Lymphopenic activity in Lewis rat assessed as reduction in blood lymphocyte counts at 1 mg/kg, po measured 24 hrs post dose; assay type: functional
[10] = Volume of distribution at steady state in Beagle dog at 2 mg/kg, iv or 3 mg/kg, po; assay type: ADME, organism-based, Canis lupus familiaris; conditions: in vivo, read-out: Vdss
[11] = Oral bioavailability in Sprague-Dawley rat 3 mg/kg; assay type: ADME, organism-based; conditions: in vivo
[12] = Induction of Cytochrome P450; assay type: ADME
[13] = Mean residence time in Sprague-Dawley rat at 1 mg/kg, iv or 3 mg/kg, po; assay type: ADME, organism-based; conditions: in vivo
[14] = Metabolic stability in human liver microsomes assessed as half life; assay type: ADME, Microsome
Rattus norvegicus [15] = test: Toxicity in telemetered Sprague-Dawley rat assessed as increase in mean arterial pressure at 20 mg/kg, po measured 4 to 6 hrs post dose; assay type: organism-based, Artery; design: dose 20 mg/kg, route oral; conditions: in vivo
[16] = target: Voltage-gated inwardly rectifying potassium channel KCNH2 (Homo sapiens, UniProt Q12809); test: Inhibition of human ERG by patch-clamp method
[17] = Terminal half life in Sprague-Dawley rat at 1 mg/kg, iv or 3 mg/kg, po; assay type: ADME, organism-based; conditions: in vivo, read-out: beta t1/2 (converted)
[18] = Toxicity in rat assessed as No observed adverse effect level by 4 day repeated dose toxicity study; assay type: organism-based; conditions: in vivo
[19] = Mutagenic activity in Salmonella Typhimurium by Ames assay; assay type: toxicity; conditions: salmonella enterica subsp. enterica serovar typhimurium
[20] = Clearance in cynomolgus monkey at 1 mg/kg, iv or 5 mg/kg, po; assay type: ADME, organism-based, Macaca fascicularis; conditions: in vivo
[21] = Oral bioavailability in cynomolgus monkey 5 mg/kg; assay type: ADME, organism-based, Macaca fascicularis; conditions: in vivo
Rattus norvegicus [22] = test: Toxicity in telemetered Sprague-Dawley rat assessed as increase in mean arterial pressure at 40 mg/kg, po measured 4 to 6 hrs post dose; assay type: organism-based, Artery; design: dose 40 mg/kg, route oral; conditions: in vivo
[23] = Volume of distribution at steady state in cynomolgus monkey at 1 mg/kg, iv or 5 mg/kg, po; assay type: ADME, organism-based, Macaca fascicularis; conditions: in vivo, read-out: Vdss
[24] = Clearance in Beagle dog at 2 mg/kg, iv or 3 mg/kg, po; assay type: ADME, organism-based, Canis lupus familiaris; conditions: in vivo
[25] = Oral bioavailability in Beagle dog 3 mg/kg; assay type: ADME, organism-based, Canis lupus familiaris; conditions: in vivo
[26] = Volume of distribution at steady state in Sprague-Dawley rat at 1 mg/kg, iv or 3 mg/kg, po; assay type: ADME, organism-based; conditions: in vivo, read-out: Vdss
Homo sapiens = species: Homo sapiens; test: Selectivity for human S1P1R over human S1P3R
[27] = Terminal half life in Beagle dog at 2 mg/kg, iv or 3 mg/kg, po; assay type: ADME, organism-based, Canis lupus familiaris; conditions: in vivo, read-out: beta t1/2 (converted)
Rattus norvegicus [28] = test: Lymphopenic activity in po dosed Lewis rat assessed as reduction in blood lymphocyte counts measured 24 hrs post dose; assay type: functional, organism-based
[29] = Clearance in Sprague-Dawley rat at 1 mg/kg, iv or 3 mg/kg, po; assay type: ADME, organism-based; conditions: in vivo
[30] = Terminal half life in cynomolgus monkey at 1 mg/kg, iv or 5 mg/kg, po; assay type: ADME, organism-based, Macaca fascicularis; conditions: in vivo, read-out: beta t1/2 (converted)
[31] = Mean residence time in cynomolgus monkey at 1 mg/kg, iv or 5 mg/kg, po; assay type: ADME, organism-based, Macaca fascicularis; conditions: in vivo
[32] = Mean residence time in Beagle dog at 2 mg/kg, iv or 3 mg/kg, po; assay type: ADME, organism-based, Canis lupus familiaris; conditions: in vivo
Mus musculus = test: Reversing disease course in experimental autoimmune encephalitis SJL mouse model of multiple sclerosis at 10 mg/kg, po; assay type: functional, organism-based; design: dose 10 mg/kg
Rattus norvegicus [33] = test: Toxicity in telemetered Sprague-Dawley rat assessed as effect on heart rate at 40 mg/kg, po; assay type: organism-based; design: dose 40 mg/kg, route oral; conditions: in vivo

T1 sequence (Q99500 whole entry): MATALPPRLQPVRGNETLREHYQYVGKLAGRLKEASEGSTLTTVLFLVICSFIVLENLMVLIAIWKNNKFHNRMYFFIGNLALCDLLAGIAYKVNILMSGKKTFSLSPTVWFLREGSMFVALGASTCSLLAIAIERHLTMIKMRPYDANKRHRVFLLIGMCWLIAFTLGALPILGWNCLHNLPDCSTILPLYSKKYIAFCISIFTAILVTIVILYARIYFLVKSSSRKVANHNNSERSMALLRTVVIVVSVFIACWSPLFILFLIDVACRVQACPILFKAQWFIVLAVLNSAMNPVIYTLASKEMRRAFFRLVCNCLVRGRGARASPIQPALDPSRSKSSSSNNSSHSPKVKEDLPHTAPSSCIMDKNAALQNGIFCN
T2 sequence (P21453 whole entry): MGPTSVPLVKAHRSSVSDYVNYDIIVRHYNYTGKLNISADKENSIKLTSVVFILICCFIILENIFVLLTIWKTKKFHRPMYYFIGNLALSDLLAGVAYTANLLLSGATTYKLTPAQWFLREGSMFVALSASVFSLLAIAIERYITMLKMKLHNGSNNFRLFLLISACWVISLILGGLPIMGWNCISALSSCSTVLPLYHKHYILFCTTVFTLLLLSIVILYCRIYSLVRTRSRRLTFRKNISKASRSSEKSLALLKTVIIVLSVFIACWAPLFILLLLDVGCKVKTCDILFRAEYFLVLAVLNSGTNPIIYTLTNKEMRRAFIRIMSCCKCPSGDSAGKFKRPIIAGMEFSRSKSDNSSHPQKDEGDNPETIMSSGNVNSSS
Sequence of Voltage-gated inwardly rectifying potassium channel KCNH2 (Q12809 whole entry): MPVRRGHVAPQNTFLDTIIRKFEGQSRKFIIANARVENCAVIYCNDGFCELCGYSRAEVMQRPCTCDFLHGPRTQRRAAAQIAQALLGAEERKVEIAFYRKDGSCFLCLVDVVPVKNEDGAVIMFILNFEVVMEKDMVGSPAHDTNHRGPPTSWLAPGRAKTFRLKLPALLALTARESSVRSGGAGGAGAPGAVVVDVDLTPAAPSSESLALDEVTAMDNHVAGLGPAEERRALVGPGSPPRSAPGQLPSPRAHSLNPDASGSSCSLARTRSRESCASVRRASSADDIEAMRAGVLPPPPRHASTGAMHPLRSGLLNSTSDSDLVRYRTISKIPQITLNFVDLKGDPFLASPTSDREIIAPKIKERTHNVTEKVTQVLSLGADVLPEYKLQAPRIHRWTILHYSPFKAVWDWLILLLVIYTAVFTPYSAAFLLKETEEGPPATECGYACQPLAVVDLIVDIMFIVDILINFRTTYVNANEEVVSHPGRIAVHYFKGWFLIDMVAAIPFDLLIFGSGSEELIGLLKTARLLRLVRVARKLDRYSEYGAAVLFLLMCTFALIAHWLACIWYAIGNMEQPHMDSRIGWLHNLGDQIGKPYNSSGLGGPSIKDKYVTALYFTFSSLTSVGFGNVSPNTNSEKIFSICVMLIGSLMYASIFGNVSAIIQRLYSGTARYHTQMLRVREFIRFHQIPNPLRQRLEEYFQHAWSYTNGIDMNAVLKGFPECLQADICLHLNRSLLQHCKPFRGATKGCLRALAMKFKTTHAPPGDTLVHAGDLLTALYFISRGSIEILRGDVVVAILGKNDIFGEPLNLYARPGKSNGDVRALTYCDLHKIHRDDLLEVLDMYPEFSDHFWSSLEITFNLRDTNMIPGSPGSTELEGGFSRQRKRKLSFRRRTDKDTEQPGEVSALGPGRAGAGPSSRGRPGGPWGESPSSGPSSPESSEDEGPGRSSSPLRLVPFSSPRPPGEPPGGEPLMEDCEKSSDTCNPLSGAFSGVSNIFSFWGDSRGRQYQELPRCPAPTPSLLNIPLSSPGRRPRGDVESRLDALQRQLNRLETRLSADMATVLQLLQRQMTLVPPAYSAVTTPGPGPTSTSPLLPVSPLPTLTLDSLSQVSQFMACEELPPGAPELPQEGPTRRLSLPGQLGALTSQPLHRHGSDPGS

Structure (SMILES): CC(C)(C)c1ccc(-c2noc(-c3ccc(CN4CC(C(=O)O)C4)cc3)n2)cc1
pIC50 [1]: < 5.00

Structure (SMILES): O=C(O)C1CN(Cc2ccc(-c3cc4cc(CCc5ccccc5)ccc4o3)cc2)C1
pEC50 [2]: 6.45
pEC50 [3]: < 4.60

Structure (SMILES): CCCCOc1ccc2oc(-c3ccc(CN4CC(C(=O)O)C4)cc3)cc2c1
pEC50 [3]: < 5.14

Structure (SMILES): CCCCc1ccc2oc(-c3ccc(CN4CC(C(=O)O)C4)cc3)cc2c1
pEC50 [4]: 6.46
pEC50 [2]: 5.61
pEC50 [3]: < 4.60

Structure (SMILES): O=C(O)C1CN(Cc2ccc(-c3cc4cc(OCC5CCCC5)ccc4o3)c(F)c2)C1
Efficacy [5]: 71%
pEC50 [2]: 6.34
pEC50 [3]: < 4.60

Structure (SMILES): O=C(O)C1CN(Cc2ccc(-c3cc4cc(Oc5ccccc5)ccc4o3)cc2)C1
pEC50 [3]: < 4.60

Structure (SMILES): O=C(O)C1CN(Cc2ccc(-c3cc4cc(C5CCCCC5)ccc4o3)c(F)c2)C1
Efficacy [5]: 100%
pEC50 [2]: 7.32
pEC50 [3]: < 4.60

Structure (SMILES): FC(F)(F)c1cccc(-c2noc(-c3cc(-c4ccccc4)c(C(F)(F)F)s3)n2)c1
pIC50 [1]: < 5.00

Structure (SMILES): CC(C)Cc1ccc(-c2nc(-c3ccc(CN4CC(C(=O)O)C4)cc3)no2)cc1
pIC50 [1]: 4.92

Structure (SMILES): O=C(O)C1CN(Cc2ccc(-c3cc4cc(C5CCCCC5)ccc4o3)cc2)C1
pEC50 [4]: 6.22
pEC50 [2]: 6.34
pEC50 [3]: < 4.60

Structure (SMILES): CCCCOc1ccc2oc(-c3ccc(CN4CC(C(=O)O)C4)cc3OC)cc2c1
Efficacy [5]: 117%
pEC50 [2]: 6.19
pEC50 [3]: < 4.60

Structure (SMILES): O=C(O)C1CN(Cc2ccc(-c3cc4cc(-c5cccnc5)ccc4o3)cc2)C1
pEC50 [4]: < 6.00
pEC50 [2]: 5.30
pEC50 [3]: < 4.60

Structure (SMILES): CCCCOc1ccc2oc(-c3ncc(CN4CC(C(=O)O)C4)s3)cc2c1
pEC50 [2]: < 6.00
pEC50 [3]: < 4.60

Structure (SMILES): CC(C)(C)c1ccc(-c2nnc(-c3ccc(CN4CC(C(=O)O)C4)cc3)o2)cc1
pIC50 [1]: < 5.00

Structure (SMILES): O=C(O)C1CN(Cc2ccc(-c3cc4cc(Cc5ccccc5)ccc4o3)cc2)C1
pEC50 [4]: 6.36
pEC50 [2]: 5.68
pEC50 [3]: < 5.37

Structure (SMILES): O=C(O)C1CN(Cc2ccc(-c3cc4cc(C5CCCCC5)ccc4o3)nc2)C1
Efficacy [5]: 115%
pEC50 [2]: 6.37
pEC50 [3]: < 4.60

Continued by rising pEC50 [3], values first:

inhibition (INH) [6]: Not Active
Vd [10]: 2.2 L/kg
bioavailability [11]: 80%
Activity [12]: Not Active
MRT [13]: 12.7 h
half-life [14]: > 1.5 h
half-life [17]: 12.1 h
clearance [20]: 5.15 mL/min/kg
bioavailability [21]: 88%
Vd [23]: 1 L/kg
clearance [24]: 4.43 mL/min/kg
pEC50 [2]: 7.24
bioavailability [25]: 51%
Vd [26]: 1.7 L/kg
Selectivity ratio (Homo sapiens): > 1000
half-life [27]: 21.1 h
clearance [29]: 2.3 mL/min/kg
half-life [30]: 4.7 h
MRT [31]: 3.4 h
MRT [32]: 9 h
pEC50 [3]: 4.57
Structure (SMILES): O=C(O)C1CN(Cc2ccc(-c3cc4cc(Cc5ccccc5)ccc4o3)c(F)c2)C1
Activity (Rattus norvegicus [7]): Non-toxic
inhibition in vivo at 3 mg/kg (Rattus norvegicus [8]): 75%
inhibition in vivo at 1 mg/kg (Rattus norvegicus [9]): 75%
Activity (Rattus norvegicus [15]): Toxic
pIC50 [16]: 4.77
NOAEL at 96 h [18]: 20 mg/kg
Activity [19]: Non-toxic
Activity (Rattus norvegicus [22]): Toxic
inhibition (Rattus norvegicus [28]): Dose-dependent effect
inhibition (Mus musculus): Active
Activity (Rattus norvegicus [33]): Non-toxic

Efficacy [5]: 89%
pEC50 [2]: 5.64
pEC50 [3]: 4.60
Structure (SMILES): CCCCOc1ccc2cc(-c3ccc(CN4CC(C(=O)O)C4)cc3)oc2c1

Efficacy [5]: 104%
pEC50 [2]: 6.80
pEC50 [3]: 4.99
Structure (SMILES): CCCCOc1ccc2oc(-c3ccc(CN4CC(C(=O)O)C4)cc3Cl)cc2c1

Efficacy [5]: 156%
pEC50 [2]: 6.54
pEC50 [3]: 5.32
Structure (SMILES): O=C(O)C1CN(Cc2ccc(-c3cc4cc(OCC5CC5)ccc4o3)c(F)c2)C1

Efficacy [5]: 100%
pEC50 [2]: 6.60
pEC50 [3]: 5.46
Structure (SMILES): O=C(O)C1CN(Cc2ccc(-c3cc4cc(Cc5ccccc5)ccc4o3)cc2F)C1

pEC50 [2]: 6.82
pEC50 [3]: 5.72
Structure (SMILES): CC(C)Cc1ccc2oc(-c3ccc(CN4CC(C(=O)O)C4)cc3)cc2c1

pEC50 [2]: 6.21
Selectivity ratio (Homo sapiens): 2
pEC50 [3]: 5.84
Structure (SMILES): O=C(O)C1CN(Cc2ccc(-c3cc4cc(N5CCCCC5)ccc4o3)cc2)C1
